{
  "source": "PubChem BioAssay AID1745844",
  "about": "(Carcinogenic Potency Database (CPDB), 2022)",
  "system": "rodent lifetime carcinogenesis bioassay, tumor incidence TD50",
  "assay": "chronic cancer bioassays in animals – CPDB, compiled studies (AID 1745844)",
  "note": "Active and inactive are the calls of the source. No rule for the calls is given here.",
  "data": [
    {"smiles": "CBr", "values": [
      {"measurement": "carcinogen call", "setting": "mouse, strain B6C3F1, females, inhaled, site: any site (literature study), lesion: several types, types named in the paper, dosed 75 weeks, study length 104 weeks", "result": "negative (inactive)"},
      {"measurement": "carcinogen call", "setting": "mouse, strain B6C3F1, males, inhaled, site: any site (literature study), lesion: several types, types named in the paper, dosed 75 weeks, study length 104 weeks", "result": "negative (inactive)"},
      {"measurement": "carcinogen call", "setting": "mouse, strain Crj:BDF1, females, inhaled, site: liver, lesion: hepatocellular adenoma, dosed 104 weeks, study length 105 weeks", "result": "negative (inactive)"},
      {"measurement": "TD50", "setting": "mouse, strain Crj:BDF1, females, inhaled, site: liver, lesion: hepatocellular carcinoma, dosed 104 weeks, study length 105 weeks", "result": "23900 mg/kg/day (inactive)"},
      {"measurement": "TD50", "setting": "mouse, strain Crj:BDF1, females, inhaled, site: lung, lesion: alveolar/bronchiolar adenoma, dosed 104 weeks, study length 105 weeks", "result": "6420 mg/kg/day (inactive)"},
      {"measurement": "carcinogen call", "setting": "mouse, strain Crj:BDF1, females, inhaled, site: lung, lesion: alveolar/bronchiolar carcinoma, dosed 104 weeks, study length 105 weeks", "result": "negative (inactive)"},
      {"measurement": "TD50", "setting": "mouse, strain Crj:BDF1, females, inhaled, site: lymph node, lesion: malignant lymphoma, dosed 104 weeks, study length 105 weeks", "result": "845 mg/kg/day (inactive)"},
      {"measurement": "carcinogen call", "setting": "mouse, strain Crj:BDF1, males, inhaled, site: liver, lesion: hepatocellular adenoma, dosed 104 weeks, study length 105 weeks", "result": "negative (inactive)"},
      {"measurement": "carcinogen call", "setting": "mouse, strain Crj:BDF1, males, inhaled, site: liver, lesion: hepatocellular carcinoma, dosed 104 weeks, study length 105 weeks", "result": "negative (inactive)"},
      {"measurement": "carcinogen call", "setting": "mouse, strain Crj:BDF1, males, inhaled, site: lung, lesion: alveolar/bronchiolar adenoma, dosed 104 weeks, study length 105 weeks", "result": "negative (inactive)"},
      {"measurement": "carcinogen call", "setting": "mouse, strain Crj:BDF1, males, inhaled, site: lung, lesion: alveolar/bronchiolar carcinoma, dosed 104 weeks, study length 105 weeks", "result": "negative (inactive)"},
      {"measurement": "TD50", "setting": "rat, strain F344/DuCrj, females, inhaled, site: adrenal gland, lesion: pheochromocytoma, dosed 104 weeks, study length 105 weeks", "result": "805 mg/kg/day (inactive)"},
      {"measurement": "carcinogen call", "setting": "rat, strain F344/DuCrj, females, inhaled, site: liver, lesion: hepatocellular adenoma, dosed 104 weeks, study length 105 weeks", "result": "negative (inactive)"},
      {"measurement": "carcinogen call", "setting": "rat, strain F344/DuCrj, females, inhaled, site: liver, lesion: hepatocellular carcinoma, dosed 104 weeks, study length 105 weeks", "result": "negative (inactive)"},
      {"measurement": "carcinogen call", "setting": "rat, strain F344/DuCrj, males, inhaled, site: liver, lesion: hepatocellular adenoma, dosed 104 weeks, study length 105 weeks", "result": "negative (inactive)"},
      {"measurement": "carcinogen call", "setting": "rat, strain F344/DuCrj, males, inhaled, site: liver, lesion: hepatocellular carcinoma, dosed 104 weeks, study length 105 weeks", "result": "negative (inactive)"},
      {"measurement": "TD50", "setting": "rat, strain F344/DuCrj, males, inhaled, site: peritoneum, lesion: mesothelioma, malignant, dosed 104 weeks, study length 105 weeks", "result": "40.8 mg/kg/day (inactive)"},
      {"measurement": "TD50", "setting": "rat, strain F344/DuCrj, males, inhaled, site: pituitary gland, lesion: adenoma, dosed 104 weeks, study length 105 weeks", "result": "31.8 mg/kg/day (inactive)"},
      {"measurement": "carcinogen call", "setting": "rat, strain Wistar-random, females, inhaled, site: any site (literature study), lesion: malignant tumor, dosed 129 weeks, study length 129 weeks", "result": "negative (inactive)"},
      {"measurement": "carcinogen call", "setting": "rat, strain Wistar-random, females, inhaled, site: any site (literature study), lesion: one or several types, types not named, dosed 129 weeks, study length 129 weeks", "result": "negative (inactive)"},
      {"measurement": "carcinogen call", "setting": "rat, strain Wistar-random, females, inhaled, site: liver, lesion: cholangiocarcinoma, dosed 129 weeks, study length 129 weeks", "result": "negative (inactive)"},
      {"measurement": "TD50", "setting": "rat, strain Wistar-random, females, inhaled, site: liver, lesion: neoplastic nodule, dosed 129 weeks, study length 129 weeks", "result": "2240 mg/kg/day (inactive)"},
      {"measurement": "carcinogen call", "setting": "rat, strain Wistar-random, females, inhaled, site: nasal cavity, olfactory epithelium, lesion: one or several types, types not named, dosed 129 weeks, study length 129 weeks", "result": "negative (inactive)"},
      {"measurement": "carcinogen call", "setting": "rat, strain Wistar-random, females, inhaled, site: nasal cavity, respiratory epithelium, lesion: one or several types, types not named, dosed 129 weeks, study length 129 weeks", "result": "negative (inactive)"},
      {"measurement": "carcinogen call", "setting": "rat, strain Wistar-random, males, inhaled, site: any site (literature study), lesion: malignant tumor, dosed 128 weeks, study length 128 weeks", "result": "negative (inactive)"},
      {"measurement": "carcinogen call", "setting": "rat, strain Wistar-random, males, inhaled, site: any site (literature study), lesion: one or several types, types not named, dosed 128 weeks, study length 128 weeks", "result": "negative (inactive)"},
      {"measurement": "carcinogen call", "setting": "rat, strain Wistar-random, males, inhaled, site: liver, lesion: cholangiocarcinoma, dosed 128 weeks, study length 128 weeks", "result": "negative (inactive)"},
      {"measurement": "carcinogen call", "setting": "rat, strain Wistar-random, males, inhaled, site: liver, lesion: hepatocellular carcinoma, dosed 128 weeks, study length 128 weeks", "result": "negative (inactive)"},
      {"measurement": "carcinogen call", "setting": "rat, strain Wistar-random, males, inhaled, site: liver, lesion: neoplastic nodule, dosed 128 weeks, study length 128 weeks", "result": "negative (inactive)"},
      {"measurement": "carcinogen call", "setting": "rat, strain Wistar-random, males, inhaled, site: nasal cavity, olfactory epithelium, lesion: one or several types, types not named, dosed 128 weeks, study length 128 weeks", "result": "negative (inactive)"},
      {"measurement": "carcinogen call", "setting": "rat, strain Wistar-random, males, inhaled, site: nasal cavity, respiratory epithelium, lesion: fibrosarcoma, dosed 128 weeks, study length 128 weeks", "result": "negative (inactive)"},
      {"measurement": "carcinogen call", "setting": "rat, strain Wistar-random, males, inhaled, site: nasal cavity, respiratory epithelium, lesion: osteosarcoma, dosed 128 weeks, study length 128 weeks", "result": "negative (inactive)"},
      {"measurement": "carcinogen call", "setting": "rat, strain Wistar-random, males, inhaled, site: nasal cavity, respiratory epithelium, lesion: squamous-cell carcinoma, dosed 128 weeks, study length 128 weeks", "result": "negative (inactive)"},
      {"measurement": "carcinogen call", "setting": "rat, strain Wistar-random, males, inhaled, site: pituitary gland, lesion: hemorrhagic tumor, dosed 128 weeks, study length 128 weeks", "result": "negative (inactive)"}
    ]},
    {"smiles": "Cc1ccc(C)c(C)c1", "values": [
      {"measurement": "TD50", "setting": "rat, strain Sprague-Dawley, females, by gavage, site: any site (literature study), lesion: malignant tumor, dosed 104 weeks, study length 123 weeks", "result": 14300, "unit": "mg/kg/day"},
      {"measurement": "TD50", "setting": "rat, strain Sprague-Dawley, males, by gavage, site: Zymbal's gland, lesion: carcinoma, dosed 104 weeks, study length 123 weeks", "result": 18000, "unit": "mg/kg/day"},
      {"measurement": "TD50", "setting": "rat, strain Sprague-Dawley, males, by gavage, site: any site (literature study), lesion: malignant tumor, dosed 104 weeks, study length 123 weeks", "result": 13900, "unit": "mg/kg/day"},
      {"measurement": "TD50", "setting": "rat, strain Sprague-Dawley, males, by gavage, site: any site (literature study), lesion: several types, types named in the paper, dosed 104 weeks, study length 123 weeks", "result": 1940, "unit": "mg/kg/day"},
      {"measurement": "TD50", "setting": "rat, strain Sprague-Dawley, males, by gavage, site: ear duct, lesion: carcinoma, dosed 104 weeks, study length 123 weeks", "result": 18300, "unit": "mg/kg/day"},
      {"measurement": "TD50", "setting": "rat, strain Sprague-Dawley, males, by gavage, site: head, lesion: carcinoma, dosed 104 weeks, study length 123 weeks", "result": 4350, "unit": "mg/kg/day"},
      {"measurement": "TD50", "setting": "rat, strain Sprague-Dawley, males, by gavage, site: nasal cavity, lesion: esthesioneuroepithelioma, dosed 104 weeks, study length 123 weeks", "result": 18300, "unit": "mg/kg/day"},
      {"measurement": "TD50", "setting": "rat, strain Sprague-Dawley, males, by gavage, site: oral cavity, lesion: carcinoma, dosed 104 weeks, study length 123 weeks", "result": 18300, "unit": "mg/kg/day"}
    ]}
  ]
}
